Data as given in patent US6884774B2, “Cyclic hexapeptide derivatives” (Fujisawa Pharmaceutical Co. Ltd., priority 2000, dated 2005).
Starred links: 1 amine or outer side, 2 acyl side, 3 side chain; linkers in the order of their positions; H or OH if unused. Positions of bridges follow the written chain, without caps; N, C: chain ends. Non-standard residues stand in square brackets, D forms with d. Residues, ends and D or L forms follow the SMILES beside them. *: point of attachment. X2 = C[C@H]1CC[C@@H](N2CCN(c3ccc(-c4nnc(-c5ccc(C(=O)*)cc5)s4)cc3)CC2)CC1; hTyr(3R-OH,3'-OSO3H) = N[C@H](C(=O)O)[C@H](O)Cc1ccc(O)c(OS(=O)(=O)O)c1; X3 = COCCCCCOC1CCN(c2ccc(-c3nn4cc(-c5ccc(C(=O)*)cc5)nc4s3)cc2)CC1; Orn(3R-OH,Nδ-CH(CH2OH)2) = N[C@H](C(=O)O)[C@H](O)CCNC(CO)CO; X4 = COCCCCOc1ccc(-c2nn3cc(-c4ccc(C(=O)*)cc4)nc3s2)cc1; Orn(4R-OH) = O=C([C@H](C[C@@H](O)CN[*:3])N[*:1])[*:2]; X1 = COCCCCCCOc1ccc(-c2cc(-c3ccc(C(=O)*)cc3)no2)cc1; Pro(3S-OH,4S-Me) = C[C@H]1CN[C@H](C(=O)O)[C@H]1O; Hyp = O=C(O)[C@@H]1C[C@@H](O)CN1

These compounds were tested on Candida albicans FP-633. Details: FP-633, 24 h, pH 7.3.
Format: cell-based
Method: In vitro antimicrobial activity of the object compound of Examples 4, 9, 25 and 30 disclosed later was determined by MICs in mouse serum as described below. The MICs in mouse serum were determined by the microdilution method using ICR mouse serum buffered with 20 mM HEPES buffer (pH 7.3) as a test medium. Inoculum suspension of 10^6 cells/ml were prepared by a hemocytometric procedure and diluted to obtain an inoculum size of approximately 1.0×10^3 cells/ml. Microplates were incubated at 37° C. for 24 hours in 5% CO2. The MICs were defined as the lowest concentrations at which no visible growth was observed.
In the case of `COCCCCCCOc1ccc(-c2cc(-c3ccc(C(=O)N[C@H]4C[C@@H](O)CNC(=O)[C@@H]5[C@@H](O)[C@@H](C)CN5C(=O)[C@H]([C@H](O)CCNC(CO)CO)NC(=O)[C@H]([C@H](O)Cc5ccc(O)c(OS(=O)(=O)O)c5)NC(=O)[C@@H]5C[C@@H](O)CN5C(=O)[C@H]([C@@H](C)O)NC4=O)cc3)no2)cc1` [Example 25] (X1-[Orn(4R-OH)]T[Hyp][hTyr(3R-OH,3'-OSO3H)][Orn(3R-OH,Nδ-CH(CH2OH)2)][Pro(3S-OH,4S-Me)]; lactam 1-C), the MIC is reported as under 0.3 µg/mL.
`COCCCCCOC1CCN(c2ccc(-c3nn4cc(-c5ccc(C(=O)N[C@H]6C[C@@H](O)CNC(=O)[C@@H]7[C@@H](O)[C@@H](C)CN7C(=O)[C@H]([C@H](O)CCNC(CO)CO)NC(=O)[C@H]([C@H](O)Cc7ccc(O)c(OS(=O)(=O)O)c7)NC(=O)[C@@H]7C[C@@H](O)CN7C(=O)[C@H]([C@@H](C)O)NC6=O)cc5)nc4s3)cc2)CC1` [Example 4] (X3-[Orn(4R-OH)]T[Hyp][hTyr(3R-OH,3'-OSO3H)][Orn(3R-OH,Nδ-CH(CH2OH)2)][Pro(3S-OH,4S-Me)]; lactam 1-C) gave an MIC of under 0.3 µg/mL.
For `C[C@@H](O)[C@@H]1NC(=O)[C@@H](NC(=O)c2ccc(-c3nnc(-c4ccc(N5CCN([C@H]6CC[C@@H](C)CC6)CC5)cc4)s3)cc2)C[C@@H](O)CNC(=O)[C@@H]2[C@@H](O)[C@@H](C)CN2C(=O)[C@H]([C@H](O)CCNC(CO)CO)NC(=O)[C@H]([C@H](O)Cc2ccc(O)c(OS(=O)(=O)O)c2)NC(=O)[C@@H]2C[C@@H](O)CN2C1=O` [Example 9] (X2-[Orn(4R-OH)]T[Hyp][hTyr(3R-OH,3'-OSO3H)][Orn(3R-OH,Nδ-CH(CH2OH)2)][Pro(3S-OH,4S-Me)]; lactam 1-C), the MIC was under 0.3 µg/mL.
`COCCCCOc1ccc(-c2nn3cc(-c4ccc(C(=O)N[C@H]5C[C@@H](O)CNC(=O)[C@@H]6[C@@H](O)[C@@H](C)CN6C(=O)[C@H]([C@H](O)CCNC(CO)CO)NC(=O)[C@H]([C@H](O)Cc6ccc(O)c(OS(=O)(=O)O)c6)NC(=O)[C@@H]6C[C@@H](O)CN6C(=O)[C@H]([C@@H](C)O)NC5=O)cc4)nc3s2)cc1` [Example 30] (X4-[Orn(4R-OH)]T[Hyp][hTyr(3R-OH,3'-OSO3H)][Orn(3R-OH,Nδ-CH(CH2OH)2)][Pro(3S-OH,4S-Me)]; lactam 1-C) gave an MIC of under 0.3 µg/mL.
